Experiments:
human URAT1 = biological target: T1, human URAT1 (Homo sapiens, UniProt Q96S37); conditions: for URAT1 inhibitory activity (in words): human URAT1, HEK293-URAT1 cells
T1 sequence (Q96S37 1-553): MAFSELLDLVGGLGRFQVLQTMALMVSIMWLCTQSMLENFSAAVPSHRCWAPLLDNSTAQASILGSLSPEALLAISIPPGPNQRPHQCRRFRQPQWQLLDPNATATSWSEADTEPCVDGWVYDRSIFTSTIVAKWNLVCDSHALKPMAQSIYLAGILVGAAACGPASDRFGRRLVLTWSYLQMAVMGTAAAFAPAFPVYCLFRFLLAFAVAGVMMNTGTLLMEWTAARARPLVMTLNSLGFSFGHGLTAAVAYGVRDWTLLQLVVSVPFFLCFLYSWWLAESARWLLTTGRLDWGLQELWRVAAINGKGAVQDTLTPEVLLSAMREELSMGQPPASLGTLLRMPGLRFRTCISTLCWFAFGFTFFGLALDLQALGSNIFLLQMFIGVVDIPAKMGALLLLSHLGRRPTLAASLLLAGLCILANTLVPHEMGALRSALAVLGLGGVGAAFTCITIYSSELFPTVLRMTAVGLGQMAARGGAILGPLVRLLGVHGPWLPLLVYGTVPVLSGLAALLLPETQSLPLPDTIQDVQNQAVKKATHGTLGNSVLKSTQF
Protocol: After incubation for 48 h, when the HEK293-URAT1 cells and mock cells were grown to confluence, the cells were treated with 0.25% trypsin for 1–2 min. Thereafter, the digested cells were diluted to a density of 1.5 × 10^5/mL and seeded onto the 24-well cell culture plates at 1 mL/well for about 48 h. […] The HEK293-URAT1 cells were then washed rapidly three times with ice-cold HBSS (Cl^− free) and lysed with 0.1 M aqueous NaOH solution. After that, 500-μL aliquots of cell lysates were transferred to scintillation vials and mixed with scintillation solution. The radioactivity in the cells was measured by a liquid scintillation counter (PerkinElmer, Waltham, MA, USA).

[1] = set-up: method as in PMID 17531180; conditions: weak organic acid; cited from earlier work
[2] = ratio of IC50 values against human URAT1

Row | SMILES | melting point | IC50 (human URAT1) | further results
1 | N#Cc1ccc(Cn2c(Br)nnc2SC2(C(=O)[O-])CCC2)c2ccccc12.[Na+] [1p, Sodium 1-((5-bromo-4-((4-cyano-1-naphthyl)methyl)-4H-1,2,4-triazol-3-yl)thio)cyclobutanecarboxylate] | 136 °C (dec.) | 0.59 ± 0.17 µM | 
2 | O=c1[nH]c(=O)c2[nH]c(=O)[nH]c2[nH]1 [Uric acid] |  |  | pKa [1]: 5.75
3 | O=C([O-])C1(Sc2ncc(Br)n2Cc2cccs2)CCC1.[Na+] [1x, Sodium 1-((5-bromo-1-((2-thiophenyl)methyl)-1H-imidazol-2-yl)thio)cyclobutanecarboxylate] | 210 °C (dec.) | 0.32 ± 0.07 µM | URAT1 inhibitory activity (in words) (human URAT1): highly potent
4 | O=C([O-])CSc1nnc(Br)n1Cc1ccccc1.[Na+] [1e, Sodium 2-((4-benzyl-5-bromo-4H-1,2,4-triazol-3-yl)thio)acetate] | 119 to 121 °C | 2.98 ± 0.6 µM | 
5 | CC(C)(Sc1nnc(Br)n1Cc1ccc(C#N)c2ccccc12)C(=O)O [1o] |  | 1.96 ± 0.34 µM | 
6 | CC(C)(Sc1ncc(Br)n1Cc1cccs1)C(=O)[O-].[Na+] [1w, Sodium 2-((5-bromo-1-((2-thiophenyl)methyl)-1H-imidazol-2-yl)thio)-2-methylpropionate] | 75 °C (dec.) | 17.4 ± 3.98 µM | URAT1 inhibitory activity (in words) (human URAT1): weak
7 | N#Cc1ccc(Cc2cnccc2SCC(=O)[O-])c2ccccc12.[Na+] [1t, Sodium 2-((3-((4-cyano-1-naphthyl)methyl)pyridin-4-yl)thio)acetate] | 268 °C (dec.) | 8.83 ± 1.02 µM | 
8 | CC(C)(Sc1ccncc1Cc1ccc(C#N)c2ccccc12)C(=O)O [1u, Sodium 2-((3-((4-cyano-1-naphthyl)methyl)pyridin-4-yl)thio)-2-methylpropionate] |  | 1.39 ± 0.42 µM | 
9 | CCCn1c(Br)nnc1SCC(=O)O [1b, Sodium 2-((5-bromo-4-n-propyl-4H-1,2,4-triazol-3-yl)thio)acetate] |  | 4.83 ± 1.02 µM | 
10 | O=C([O-])CSc1nnc(Br)n1Cc1sc2ccccc2c1Br.[Na+] [1hh, Sodium 2-((5-bromo-4-((3-bromobenzo[b]thiophen-2-yl)methyl)-4H-1,2,4-triazol-3-yl)thio)acetate] | 99 °C (dec.) | 0.12 ± 0.03 µM | 
11 | N#Cc1ccc(Cc2cnccc2SC2(C(=O)[O-])CCC2)c2ccccc12.[Na+] [1v, Sodium 1-((3-((4-cyano-1-naphthyl)methyl)pyridin-4-yl)thio)cyclobutanecarboxylate] | 296 °C (dec.) | 1.15 ± 0.2 µM | 
12 | N#Cc1ccc(Cn2c(Br)cnc2SCC(=O)[O-])c2ccccc12.[Na+] [1q, Sodium 2-((5-bromo-1-((4-cyano-1-naphthyl)methyl)-1H-imidazol-2-yl)thio)acetate] | 161 °C (dec.) | 5.55 ± 0.98 µM | 
13 | CCn1c(Br)nnc1SCC(=O)O [1a, Sodium 2-((5-bromo-4-ethyl-4H-1,2,4-triazol-3-yl)thio)acetate] |  | 18.4 ± 3.36 µM | 
14 | N#Cc1ccc(Cn2c(Br)cnc2SC2(C(=O)[O-])CCC2)c2ccccc12.[Na+] [1s, Sodium 1-((5-bromo-1-((4-cyano-1-naphthyl)methyl)-1H-imidazol-2-yl)thio)cyclobutanecarboxylate] | 285 °C (dec.) | 0.48 ± 0.11 µM | 
15 | O=C([O-])CSc1nnc(Br)n1Cc1cccc2c1sc1ccccc12.[Na+] [1hi, Sodium 2-((5-bromo-4-((dibenzo[b,d]thiophen-4-yl)methyl)-4H-1,2,4-triazol-3-yl)thio)acetate] | 74 °C (dec.) | 18.5 ± 5.41 µM | 
16 | CC(C)(Sc1ncc(Br)n1Cc1ccc(C#N)c2ccccc12)C(=O)[O-].[Na+] [1r, Sodium 2-((5-bromo-1-((4-cyano-1-naphthyl)methyl)-1H-imidazol-2-yl)thio)-2-methylpropionate] | 243 °C (dec.) | 0.21 ± 0.07 µM | 
17 | CCc1ccc(Cn2c(Br)nnc2SCC(=O)[O-])s1.[Na+] [1hc, Sodium 2-((5-bromo-4-((5-ethyl-2-thiophenyl)methyl)-4H-1,2,4-triazol-3-yl)thio)acetate] | 178 to 180 °C | 7.98 ± 2.14 µM | 
18 | Cc1ccc(Cn2c(Br)nnc2SCC(=O)[O-])s1.[Na+] [1hb, Sodium 2-((5-bromo-4-((5-methyl-2-thiophenyl)methyl)-4H-1,2,4-triazol-3-yl)thio)acetate] | 157 °C (dec.) | > 50 µM | 
19 | O=C([O-])CSc1nnc(Br)n1Cc1ccc(-c2ccccc2)s1.[Na+] [1hg, Sodium 2-((5-bromo-4-((5-phenyl-2-thiophenyl)methyl)-4H-1,2,4-triazol-3-yl)thio)acetate] | 212 °C (dec.) | 31.7 ± 9.34 µM | 
20 | O=C([O-])CSc1nnc(Br)n1Cc1ccc(-c2ccccc2)cc1.[Na+] [1i, Sodium 2-((4-(biphenyl-4-methyl)-5-bromo-4H-1,2,4-triazol-3-yl)thio)acetate] | 199 to 201 °C | 1.16 ± 0.34 µM | 
21 | O=C([O-])CSc1nnc(Br)n1Cc1cccnc1.[Na+] [1f, Sodium 2-((5-bromo-4-(3-pyridinylmethyl)-4H-1,2,4-triazol-3-yl)thio)acetate] | 109 to 111 °C | 14.2 ± 4.71 µM | 
22 | O=C([O-])CSc1nnc(Br)n1CC1CCCCC1.[Na+] [1c, Sodium 2-((5-bromo-4-(cyclohexylmethyl)-4H-1,2,4-triazol-3-yl)thio)acetate] | 135 °C (dec.) | 4.6 ± 0.88 µM | 
23 | O=C([O-])CSc1nnc(Br)n1Cc1ccc(Cl)s1.[Na+] [1ha, Sodium 2-((5-bromo-4-((5-chloro-2-thiophenyl)methyl)-4H-1,2,4-triazol-3-yl)thio)acetate] | 97 °C (dec.) | 11.2 ± 2.36 µM | 
24 | Cc1cc(Cn2c(Br)nnc2SCC(=O)[O-])sc1Br.[Na+] [1he, Sodium 2-((5-bromo-4-((5-bromo-4-methyl-2-thiophenyl)methyl)-4H-1,2,4-triazol-3-yl)thio)acetate] | 87 °C (dec.) | 6.1 ± 1.17 µM | 

The next lines start with results.

Row | melting point | IC50 (human URAT1) | SMILES | further results
25 | 108 to 111 °C | 4.54 ± 0.69 µM | O=C([O-])CSc1nnc(Br)n1Cc1ccco1.[Na+] [1g, Sodium 2-((5-bromo-4-(2-furanylmethyl)-4H-1,2,4-triazol-3-yl)thio)acetate] | 
26 | 195 °C (dec.) | 1.15 ± 0.25 µM | O=C([O-])CSc1nnc(Br)n1C(c1ccccc1)c1ccccc1.[Na+] [1j, Sodium 2-((5-bromo-4-(diphenylmethyl)-4H-1,2,4-triazol-3-yl)thio)acetate] | 
27 | 124 to 126 °C | > 50 µM | O=C([O-])CSc1nnc(Br)n1Cc1ccsc1.[Na+] [1hf, Sodium 2-((5-bromo-4-((3-thiophenyl)methyl)-4H-1,2,4-triazol-3-yl)thio)acetate] | URAT1 inhibitory activity (in words) (human URAT1): complete loss of URAT1 inhibitory activity
28 | 92 °C (dec.) | 2.61 ± 0.4 µM | O=C([O-])CSc1nnc(Br)n1Cc1ccc2occc2c1.[Na+] [1k, Sodium 2-((4-(benzo[b]furan-5-methyl)-5-bromo-4H-1,2,4-triazol-3-yl)thio)acetate] | 
29 | 158 °C (dec.) | 3.04 ± 0.84 µM | Cc1ccsc1Cn1c(Br)nnc1SCC(=O)[O-].[Na+] [1hd, Sodium 2-((5-bromo-4-((3-methyl-2-thiophenyl)methyl)-4H-1,2,4-triazol-3-yl)thio)acetate] | 
30 | 118 °C (dec.) | 4.66 ± 1.04 µM | O=C([O-])CSc1nnc(Br)n1Cc1ccc2ccccc2c1.[Na+] [1m, Sodium 2-((5-bromo-4-(2-naphthylmethyl)-4H-1,2,4-triazol-3-yl)thio)acetate] | 
31 |  | 0.035 ± 0.01 µM | O=C([O-])CSc1nnc(Br)n1Cc1cccs1.[Na+] [1h, Sodium 2-((5-bromo-4-(2-thiophenylmethyl)-4H-1,2,4-triazol-3-yl)thio)acetate] | fold more potent than benzbromarone (human URAT1; [2]): 8 fold; fold more potent than parent lesinurad (human URAT1; [2]): 200 fold
32 | 122 °C (dec.) | 1.36 ± 0.24 µM | O=C([O-])CSc1nnc(Br)n1Cc1ccc2ncccc2c1.[Na+] [1n, Sodium 2-((5-bromo-4-(quinoline-6-methyl)-4H-1,2,4-triazol-3-yl)thio)acetate] | 
33 | 194 °C (dec.) | 5.11 ± 0.79 µM | O=C([O-])CSc1nnc(Br)n1CC12CC3CC(CC(C3)C1)C2.[Na+] [1d, Sodium 2-((4-(1-adamantylmethyl)-5-bromo-4H-1,2,4-triazol-3-yl)thio)acetate] | 
34 |  | 3.8 ± 0.78 µM | N#Cc1ccc(Cn2c(Br)nnc2SCC(=O)O)c2ccccc12 [1l, Sodium 2-((5-bromo-4-((4-cyano-1-naphthyl)methyl)-4H-1,2,4-triazol-3-yl)thio)acetate] | 

Reference: article PMC6017028 (Molecules : A Journal of Synthetic Chemistry and Natural …, 2018)
